According to US20090004185A1, “AMINO-SUBSTITUTED QUINAZOLINE DERIVATIVES AS INHIBITORS OF BETA-CATENIN/TCF-4 PATHWAY AND CANCER TREATMENT AGENTS” (WYETH, priority 2007, published 2009):

What was measured:
[1] = test system: β-catenin/Tcf-4; assay: cells; type: cell-based; details: Homo sapiens, 24 hours of incubation with compound, ratio Firefly/Renilla luciferase
Excerpt: Background cell line: SW480 colorectal carcinoma DNA constructs:
1) Tcf-4-Luc: Tcf-4 binding sites driving Firefly Luciferase in the pGL3 vector—to measure the activity of β-catenin/Tcf-4;
(§1) 2) SV40-Luc: SV40 binding site driving Firefly Luciferase in the pGL3 vector—as a control for non-specific inhibitors; and
(§2) 3) SV40-R-Luc: SV40 binding site driving Renilla Luciferase in the pGL3 vector—as an internal control for cell number and toxicity.
This screen uses 3 cell lines derived from SW480 and selected to contain the above luciferase reporters integrated into their chromosomes as follows: […]
(§3) Cells: Tcf22C11 and SV5A8 were grown in the presence of 500 μg/ml G418 and Tcf 33.13 was grown in the presence of 500 μg/ml G418+125 μg/ml Zeocin to maintain the integrated reporters. The cells were trypsinized and plated at 1×10^4 cells/well in opaque 96 well plates.
The compounds were diluted as follows: The compounds were stored frozen in dimethyl sulfoxide (DMSO) at […]. Compounds were initially titrated in DMSO to make a 1000×DMSO stock solution. Compounds were then diluted 1:25 into media/DMSO (DMEM+10% FBS+9% DMSO). Using the Biomek Multimek, the diluted compounds were mixed well and immediately added to the plated cells in a 1:40 dilution. The final concentration of DMSO in the assay plates was 0.316% DMSO.
(§4) Assay Readout: The luciferase signal was detected using a luciferase detection kit from Promega. Until December 2003, Promega's Dual-Luciferase® Reporter (DLR™) Assay System was used to detect luciferase activity. Briefly, after 24 hours of incubation with compound, culture media was removed by aspiration and 20 ul of passive lysis buffer (Promega) per well was added. The plates were shaken for 15 min. Firefly substrate was then added and the resulting luminescence was immediately read on a CCD camera imaging device or a luminometer. After quantifying the firefly luminescence, the reaction was quenched, and the Renilla luciferase reaction was initiated simultaneously by adding Stop & Glo® Reagent to the same sample. Renilla luciferase was then quantified using the CCD camera or luminometer.
Promega's Dual-Glo™ Luciferase Assay System can be used for luciferase detection. […] Briefly, after 24 hours of incubation with compound, culture media was removed by aspiration and 75 ul of fresh medium was added. Add 75 ul of Dual-Glo Luciferase Reagent (Promega) to each well and mix by shaking for 10 minutes on a plate shaker. Then, measure the firefly luminescence on a CCD camera imaging device or a luminometer. After quantifying the firefly luminescence, add 75 ul of Dual-Glo Stop & Glo Reagent (Promega) to each well and mix for 10 minutes. Renilla luciferase was then quantified using the CCD camera or luminometer.
(§5) This assay was meant to confirm primary leads and determine IC50s. Compounds were tested at titrated dilutions. The raw data for this assay was reported in protocol 2463-B. Protocol 2463-C contains the IC50 calculations based on the raw data. The data calculations were done as follows:
(§6) The data was expressed as % of control for both Firefly and Renilla Luciferase. The ratio of FF/Renilla (F/R) was then calculated and averaged between duplicate plates. The data was then plotted using LSW Data Analysis in Microsoft Excel. IC50s were determined by plotting the data in the LSW Data Analysis program using model 33. The IC50s (nM) for all three cell lines were reported.

[2] = test system: SV40-Luc; assay: SV40-Luc control luciferase reporter assay, SV 5A8 cell line (SV40-Luc and SV40-R-Luc), control for non-specific inhibitors; type: cell-based, human; details: Homo sapiens, SV5A8, 24 h, SV 5A8 cells derived from SW480; 24 hours of incubation with compound; ratio Firefly/Renilla luciferase
Excerpt: Background cell line: SW480 colorectal carcinoma DNA constructs: […]
as §1, §2
This screen uses 3 cell lines derived from SW480 and selected to contain the above luciferase reporters integrated into their chromosomes as follows:
SV 5A8—SV40-Luc and SV40-R-Luc
as §3
Compounds: 20-24 hours after cell plating, compounds were added at titrated concentrations between […]. The compounds were diluted as follows: The compounds were stored frozen in dimethyl sulfoxide (DMSO) at […]. Compounds were initially titrated in DMSO to make a 1000×DMSO stock solution. Compounds were then diluted 1:25 into media/DMSO (DMEM+10% FBS+9% DMSO). Using the Biomek Multimek, the diluted compounds were mixed well and immediately added to the plated cells in a 1:40 dilution. The final concentration of DMSO in the assay plates was 0.316% DMSO.
as §4
Promega's Dual-Glo™ Luciferase Assay System can be used for luciferase detection. It was similar to the DLR Assay, however, unlike the DLR which has to be read immediately due to decaying signal, the signal in the Dual-Glo™ Luciferase Assay was stable for up to 2 hours. Briefly, after 24 hours of incubation with compound, culture media was removed by aspiration and 75 ul of fresh medium was added. Add 75 ul of Dual-Glo Luciferase Reagent (Promega) to each well and mix by shaking for 10 minutes on a plate shaker. Then, measure the firefly luminescence on a CCD camera imaging device or a luminometer. After quantifying the firefly luminescence, add 75 ul of Dual-Glo Stop & Glo Reagent (Promega) to each well and mix for 10 minutes. Renilla luciferase was then quantified using the CCD camera or luminometer.
as §5, §6

[3] = SW480, 24 h, Tcf 33.13 cells derived from SW480
[4] = Tcf22C11, 24 h, Tcf 22C11 cells derived from SW480

Row | SMILES | IC50 [1, 3] [nM] | IC50 [1, 4] [nM] | IC50 [2] [nM]
1 | CCN(CC)c1nc(NCc2ccc(NC(=O)C3CCN(Cc4ccc(F)cc4)CC3)cc2)c2cc(C(F)(F)F)ccc2n1 [Example 158, N-[4-({[2-(diethylamino)-6-(trifluoromethyl)quinazolin-4-yl]amino}methyl)phenyl]-1-(4-fluorobenzyl)piperidine-4-carboxamide] | 3850 | > 4110 | > 8210
2 | Cc1ccc2c(NCc3ccc(NC(=O)C4CCN(Cc5ccc(Cl)nc5)CC4)cc3)nc(N(C)C)nc2c1 [Example 259, 1-[(6-chloropyridin-3-yl)methyl]-N-[4-({[2-(dimethylamino)-7-methylquinazolin-4-yl]amino}methyl)phenyl]piperidine-4-carboxamide] | 415 | 573 | > 8100
3 | CN(C)c1nc(NCc2ccc(NC(=O)C3CCN(Cc4ccccc4)CC3)cc2)c2ccccc2n1 [Example 146, 1-benzyl-N-[4-({[2-(dimethylamino)quinazolin-4-yl]amino}methyl)phenyl]piperidine-4-carboxamide] | 1770 | 2000 | > 10100
4 | Cc1ccc2c(NCc3ccc(NC(=O)c4ccc(F)cc4)cc3)nc(N3CCN(CC(=O)NC(C)C)CC3)nc2c1 [Example 219, 4-fluoro-N-(4-{[(2-{4-[2-(isopropylamino)-2-oxoethyl]piperazin-1-yl}-7-methylquinazolin-4-yl)amino]methyl}phenyl)benzamide] | 1420 | 1800 | > 14600
5 | CN(C)c1nc(NCc2ccc(NC(=O)C3CCN(Cc4ccccc4)CC3)cc2)c2ccc(/C=C/C(C)(C)C)cc2n1 [Example 152, 1-benzyl-N-{4-[({2-(dimethylamino)-7-[(1E)-3,3-dimethylbut-1-en-1-yl]quinazolin-4-yl}amino)methyl]phenyl}piperidine-4-carboxamide] | > 962 | 1050 | > 3850
6 | Cc1ccc2nc(N3CCN[C@H](C)C3)nc(NCc3ccc(NC(=O)C4CCN(Cc5ccccc5)CC4)cc3)c2c1 [Example 85, 1-benzyl-N-{4-[({6-methyl-2-[(3R)-3-methylpiperazin-1-yl]quinazolin-4-yl}amino)methyl]phenyl}piperidine-4-carboxamide] | 530 | 771 | > 2220
7 | Cc1ccc2c(NCc3ccc(NC(=O)C4CCN(Cc5cccc(F)c5)CC4)cc3)nc(N(C)C)nc2c1 [Example 261, N-[4-({[2-(dimethylamino)-7-methylquinazolin-4-yl]amino}methyl)phenyl]-1-(3-fluorobenzyl)piperidine-4-carboxamide] | 328 | 347 | > 4170
8 | CC(O)c1ccc2c(NCc3ccc(NC(=O)c4ccc(F)cc4)cc3)nc(N(C)C)nc2c1 (stereo not drawn) [Example 95, N-[4-({[2-(dimethylamino)-7-(1-hydroxyethyl)quinazolin-4-yl]amino}methyl)phenyl]-4-fluorobenzamide] | – | – | > 20200
9 | CN(C)c1nc(NCc2ccc(NC(=O)c3ccc(F)cc3)cc2)c2ccc(C=O)cc2n1 [Example 92, N-[4-({[2-(dimethylamino)-7-formylquinazolin-4-yl]amino}methyl)phenyl]-4-fluorobenzamide] | – | – | > 17900
10 | Cc1ccc2c(NCc3ccc(NC(=O)c4ccc(F)cc4)cc3)nc(N3CCNCC3)nc2c1 [Example 208, 4-fluoro-N-(4-{[(7-methyl-2-piperazin-1-ylquinazolin-4-yl)amino]methyl}phenyl)benzamide] | – | – | > 2660
11 | C=Cc1ccc2c(NCc3ccc(NC(=O)c4ccc(F)cc4)cc3)nc(N(C)C)nc2c1 [Example 87, N-[4-({[2-(dimethylamino)-7-vinylquinazolin-4-yl]amino}methyl)phenyl]-4-fluorobenzamide] | – | – | > 20900
12 | CN(C)c1nc(NCc2ccc(NC(=O)c3ccc(F)cc3)cc2)c2ccc(CO)cc2n1 [Example 93, N-[4-({[2-(dimethylamino)-7-(hydroxymethyl)quinazolin-4-yl]amino}methyl)phenyl]-4-fluorobenzamide] | – | – | > 10400

Results, then the compound that gave them:

Row | IC50 [1, 3] [nM] | IC50 [1, 4] [nM] | IC50 [2] [nM] | SMILES
13 | 4480 | 7170 | > 21900 | O=C(Nc1ccc(CNc2nc(N3CCOCC3)nc3ccccc23)cc1)c1ccc(F)cc1 [Example 117, 4-fluoro-N-(4-{[(2-morpholin-4-ylquinazolin-4-yl)amino]methyl}phenyl)benzamide]
14 | 81 | 100 | > 577 | CNc1nc(NCc2ccc(NC(=O)c3ccc(F)c(F)c3)cc2)c2cc(C)ccc2n1 [Example 32, 3,4-difluoro-N-[4-({[6-methyl-2-(methylamino)quinazolin-4-yl]amino}methyl)phenyl]benzamide]
15 | 1140 | 1830 | > 4570 | CNc1nc(NCc2ccc(NC(=O)c3ccc(F)c(F)c3)cc2)c2c(C)cccc2n1 [Example 189, 3,4-difluoro-N-[4-({[5-methyl-2-(methylamino)quinazolin-4-yl]amino}methyl)phenyl]benzamide]
16 | – | – | > 602 | CNc1nc(NCc2ccc(NC(=O)c3ccc(F)cc3)cc2)c2cc(C)ccc2n1 [Example 24, 4-fluoro-N-[4-({[6-methyl-2-(methylamino)quinazolin-4-yl]amino}methyl)phenyl]benzamide]
17 | – | – | > 5440 | CNc1nc(NCc2ccc(NC(=O)c3ccc(-c4ccccc4)cc3)cc2)c2ccccc2n1 [Example 15, N-[4-({[2-(methylamino)quinazolin-4-yl]amino}methyl)phenyl]biphenyl-4-carboxamide]
18 | – | – | > 2980 | CNc1nc(NCc2ccc(NC(=O)c3ccc(Cl)nc3)cc2)c2ccccc2n1 [Example 3, 6-chloro-N-[4-({[2-(methylamino)quinazolin-4-yl]amino}methyl)phenyl]nicotinamide]
19 | – | – | > 12200 | CNc1nc(NCc2ccc(NC(=O)c3ccc(C#N)cc3)cc2)c2ccccc2n1 [Example 21, 4-cyano-N-[4-({[2-(methylamino)quinazolin-4-yl]amino}methyl)phenyl]benzamide]
20 | – | – | 2190 | CNc1nc(NCc2ccc(NC(=O)c3ccc(Cl)cc3)cc2)c2ccccc2n1 [Example 10, 4-chloro-N-[4-({[2-(methylamino)quinazolin-4-yl]amino}methyl)phenyl]benzamide]
21 | – | – | > 2890 | CNc1nc(NCc2ccc(NC(=O)c3ccc(Cl)cc3)cc2)c2c(C)cccc2n1 [Example 193, 4-chloro-N-[4-({[5-methyl-2-(methylamino)quinazolin-4-yl]amino}methyl)phenyl]benzamide]
22 | – | – | > 2910 | Cc1ccc2c(NCc3ccc(NC(=O)c4ccc(F)cc4)cc3)nc(N(C)C)nc2c1 [Example 199, N-[4-({[2-(dimethylamino)-7-methylquinazolin-4-yl]amino}methyl)phenyl]-4-fluorobenzamide]
